# Test results published in ChEMBL document CHEMBL3817761, “Chenopodium album metabolites act as dual topoisomerase inhibitors and induce apoptosis in the MCF7 cell line” (Medchemcomm, 2016).
# The source made the active and inactive calls. The rule behind the calls is not given here.
# Tests used:
# [1] = biological target: T1, DNA topoisomerase 1 (Homo sapiens) (UniProt P11387); experiment: Poisoning activity at topoisomerase 1 in human MCF7 cells at 10 uM after 12 hrs by immunoband depletion assay; assay type: cell-based
# T1 sequence (whole entry): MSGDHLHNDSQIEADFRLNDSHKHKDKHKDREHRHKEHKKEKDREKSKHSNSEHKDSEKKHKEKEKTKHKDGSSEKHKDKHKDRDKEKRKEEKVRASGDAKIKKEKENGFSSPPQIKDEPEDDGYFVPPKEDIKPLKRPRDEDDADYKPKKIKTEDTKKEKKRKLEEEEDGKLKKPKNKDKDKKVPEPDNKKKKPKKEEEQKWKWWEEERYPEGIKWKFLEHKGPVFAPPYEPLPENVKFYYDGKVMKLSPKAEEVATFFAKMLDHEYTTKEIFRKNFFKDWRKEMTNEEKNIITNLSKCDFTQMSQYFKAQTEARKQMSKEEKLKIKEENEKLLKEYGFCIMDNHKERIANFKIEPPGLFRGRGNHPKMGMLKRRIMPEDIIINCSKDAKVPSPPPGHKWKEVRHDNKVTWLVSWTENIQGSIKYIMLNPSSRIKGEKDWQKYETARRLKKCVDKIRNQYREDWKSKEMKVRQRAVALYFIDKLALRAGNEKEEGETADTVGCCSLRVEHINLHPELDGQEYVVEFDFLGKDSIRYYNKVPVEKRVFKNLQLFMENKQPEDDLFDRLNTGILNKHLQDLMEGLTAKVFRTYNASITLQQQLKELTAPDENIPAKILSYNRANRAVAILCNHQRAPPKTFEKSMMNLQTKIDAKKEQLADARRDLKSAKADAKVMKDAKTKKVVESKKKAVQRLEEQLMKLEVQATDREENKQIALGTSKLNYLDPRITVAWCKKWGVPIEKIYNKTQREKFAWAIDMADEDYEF
# [2] = biological target: DNA topoisomerase 2-alpha (Homo sapiens) (UniProt P11388); experiment: Poisoning activity at topoisomerase 2 in human MCF7 cells at 10 uM after 12 hrs by immunoband depletion assay; assay type: cell-based
# [3] = tested on: MCF7; experiment: Induction of mitochondrial membrane depolarization in human MCF7 cells after 24 to 48 hrs by JC-1 staining based FACS assay (reference value: 9.9%); assay type: functional
# [4] = tested on: MCF7; experiment: Induction of mitochondrial membrane depolarization in human MCF7 cells assessed as ratio of red to green fluorescence after 24 to 48 hrs by JC-1 staining based FACS assay (reference value: 9.1); assay type: functional
# Chain of DNA topoisomerase 2-alpha (Homo sapiens) (P11388 whole entry): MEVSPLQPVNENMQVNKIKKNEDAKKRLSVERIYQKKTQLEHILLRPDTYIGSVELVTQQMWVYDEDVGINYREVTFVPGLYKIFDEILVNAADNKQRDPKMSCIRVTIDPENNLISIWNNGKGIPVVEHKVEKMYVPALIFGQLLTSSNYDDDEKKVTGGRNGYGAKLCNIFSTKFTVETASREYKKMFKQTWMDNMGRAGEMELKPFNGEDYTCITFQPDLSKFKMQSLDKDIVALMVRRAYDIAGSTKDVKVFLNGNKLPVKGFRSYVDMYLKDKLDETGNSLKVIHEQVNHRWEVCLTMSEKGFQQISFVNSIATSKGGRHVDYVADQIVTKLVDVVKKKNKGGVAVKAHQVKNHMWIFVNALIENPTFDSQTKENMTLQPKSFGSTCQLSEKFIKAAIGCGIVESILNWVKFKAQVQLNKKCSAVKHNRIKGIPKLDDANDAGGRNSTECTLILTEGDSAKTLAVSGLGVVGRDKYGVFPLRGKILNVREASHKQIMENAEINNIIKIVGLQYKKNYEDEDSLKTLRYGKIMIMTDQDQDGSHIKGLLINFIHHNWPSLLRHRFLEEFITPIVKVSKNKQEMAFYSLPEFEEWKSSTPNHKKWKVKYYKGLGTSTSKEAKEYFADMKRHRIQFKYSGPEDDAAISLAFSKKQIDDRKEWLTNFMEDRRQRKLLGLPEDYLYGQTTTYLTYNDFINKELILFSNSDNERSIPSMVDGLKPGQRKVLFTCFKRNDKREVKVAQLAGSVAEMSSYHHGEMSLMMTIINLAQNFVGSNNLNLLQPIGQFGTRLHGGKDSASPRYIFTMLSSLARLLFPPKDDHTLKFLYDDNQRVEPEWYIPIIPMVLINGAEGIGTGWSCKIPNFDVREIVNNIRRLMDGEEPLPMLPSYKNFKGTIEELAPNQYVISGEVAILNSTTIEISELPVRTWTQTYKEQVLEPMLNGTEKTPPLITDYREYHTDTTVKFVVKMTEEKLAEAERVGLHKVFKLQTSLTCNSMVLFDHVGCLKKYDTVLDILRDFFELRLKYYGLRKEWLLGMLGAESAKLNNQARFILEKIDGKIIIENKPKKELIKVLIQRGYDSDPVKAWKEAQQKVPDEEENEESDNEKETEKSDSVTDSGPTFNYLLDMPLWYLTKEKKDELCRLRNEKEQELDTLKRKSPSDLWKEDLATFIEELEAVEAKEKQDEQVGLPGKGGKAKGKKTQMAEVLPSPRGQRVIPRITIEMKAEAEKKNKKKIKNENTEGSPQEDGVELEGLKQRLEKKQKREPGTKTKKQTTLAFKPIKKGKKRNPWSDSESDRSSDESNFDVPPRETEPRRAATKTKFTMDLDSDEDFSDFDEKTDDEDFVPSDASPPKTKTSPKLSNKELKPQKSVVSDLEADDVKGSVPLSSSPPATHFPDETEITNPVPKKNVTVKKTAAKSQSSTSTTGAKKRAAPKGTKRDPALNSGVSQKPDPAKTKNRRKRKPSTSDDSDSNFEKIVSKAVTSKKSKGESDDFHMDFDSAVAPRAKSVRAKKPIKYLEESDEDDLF
structure (smiles),measurement,setting,value
CC[C@@]1(O)C(=O)OCc2c1cc1n(c2=O)Cc2cc3ccccc3nc2-1,Activity,[1],Active
COc1cc([C@@H]2c3cc4c(cc3[C@@H](O[C@@H]3O[C@@H]5CO[C@@H](C)O[C@H]5[C@H](O)[C@H]3O)[C@H]3COC(=O)[C@H]23)OCO4)cc(OC)c1O,Activity,[2],Active
N#CC(C#N)=NNc1cccc(Cl)c1 [CARBONYL CYANIDE M-CHLOROPHENYLHYDRAZONE],Activity,[3],98.8%
same,Ratio,[4],0.014
